How the values were obtained:
Test in all cases: relative viability (nuclei count vs DMSO), 5 days (fraction); higher = more cells survive
AZ628 + OSI-027 = compound: CC1=C(C=C(C=C1)NC(=O)C2=CC(=CC=C2)C(C)(C)C#N)NC3=CC4=C(C=C3)N=CN(C4=O)C [AZ628] + COc1cccc2cc(-c3nc([C@H]4CC[C@H](C(=O)O)CC4)n4ncnc(N)c34)[nH]c12 [OSI-027] (partner 0.5 µM)
How it was run: (§1)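 Relative viability divides the nuclei count in treated wells by that in vehicle wells. Lung cancer cell lines were seeded in 1536-well plates, dosed by pin tool the next day, and fixed and stained after 5 days in one step with final 0.05% Triton X-100, 1% formaldehyde and 1 ug/ml Hoechst. Dosing was a single drug or a fixed anchor-drug dose plus five library-drug doses (not always all listed) in √10 steps, and values are medians of duplicate plates imaged at 4×.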

AZ628 + Dasatinib = compound: CC1=C(C=C(C=C1)NC(=O)C2=CC(=CC=C2)C(C)(C)C#N)NC3=CC4=C(C=C3)N=CN(C4=O)C [AZ628] + Cc1nc(Nc2ncc(C(=O)Nc3c(C)cccc3Cl)s2)cc(N2CCN(CCO)CC2)n1 [Dasatinib] (partner 0.075 µM)
How it was run: as §1

AZ628 + Olaparib = compound: CC1=C(C=C(C=C1)NC(=O)C2=CC(=CC=C2)C(C)(C)C#N)NC3=CC4=C(C=C3)N=CN(C4=O)C [AZ628] + O=C(c1cc(Cc2n[nH]c(=O)c3ccccc23)ccc1F)N1CCN(C(=O)C2CC2)CC1 [Olaparib] (partner 8 µM)
How it was run: as §1

Darinaparsin + Lapatinib = compound: C[As](C)SC[C@H](NC(=O)CC[C@H](N)C(=O)O)C(=O)NCC(=O)O [Darinaparsin] + CS(=O)(=O)CCNCc1ccc(-c2ccc3ncnc(Nc4ccc(OCc5cccc(F)c5)c(Cl)c4)c3c2)o1 [Lapatinib] (partner 2 µM)
How it was run: as §1

In the case of LCLC-97TM1, the relative viability (AZ628 + OSI-027; first compound 0.08 µM) is reported as 0.577, the relative viability (AZ628 + OSI-027; first compound 0.253 µM) is reported as 0.328 and the relative viability (AZ628 + OSI-027; first compound 0.8 µM) is reported as 0.315. It also gave a relative viability (AZ628 + OSI-027; first compound 2.53 µM) of 0.327, a relative viability (AZ628 + OSI-027; first compound 8 µM) of 0.198 and a relative viability (AZ628 + Dasatinib; first compound 0.08 µM) of 0.769. The relative viability (AZ628 + Dasatinib; first compound 0.253 µM) was 0.791, the relative viability (AZ628 + Dasatinib; first compound 0.8 µM) was 0.508 and the relative viability (AZ628 + Dasatinib; first compound 2.53 µM) was 0.477. It also gave a relative viability (AZ628 + Dasatinib; first compound 8 µM) of 0.168, a relative viability (AZ628 + Olaparib; first compound 0.08 µM) of 0.517 and a relative viability (AZ628 + Olaparib; first compound 0.253 µM) of 0.371. It also gave a relative viability (AZ628 + Olaparib; first compound 0.8 µM) of 0.356, a relative viability (AZ628 + Olaparib; first compound 2.53 µM) of 0.289 and a relative viability (AZ628 + Olaparib; first compound 8 µM) of 0.202. The relative viability (Darinaparsin + Lapatinib; first compound 0.08 µM) was 0.782, the relative viability (Darinaparsin + Lapatinib; first compound 0.8 µM) was 0.579 and the relative viability (Darinaparsin + Lapatinib; first compound 2.53 µM) was 0.803. The relative viability (Darinaparsin + Lapatinib; first compound 8 µM) was 0.867.

Reference: the supplement of paper PMC10307832
